# Reference: patent US12116359B2, “EBNA1 inhibitor crystalline forms, and methods of preparing and using same” (THE WISTAR INSTITUTE, priority 2018, dated 2024)
# Entries after “also recorded” stand apart in the source; their conditions may differ. Where two headings read alike, the source gives them in different places.
# Key:
# Type in all cases: physicochemical
# [1] = Further stability experiments on crystalline forms (vacuum drying, grinding, storage)
# Method: Further experiments were carried out, involving heating, vacuum drying and/or grinding the materials in order to assess the stability of the solvated materials and the potential crystallization of an anhydrous form by desolvation.
# [2] = Storage stability of solid forms at elevated temperature/humidity (XRPD, HPLC purity); conditions: 4 weeks
# [3] = as above
# Method: Purity analysis was performed on an Agilent HP1100 series system equipped with a diode array detector and using ChemStation software vB.04.03 using the method detailed in Table 1.
# Amorphous (I) free acid was stored at 40° C./75% RH (open vial), 25° C./97% RH (open vial) and 60° C. (closed vial, ambient humidity) for 8 weeks.
# Characterization by XRPD, ^1H NMR, TGA, DSC and storage at 40° C./75% RH for one week was carried out. Details are found in Table 10.
# [4] = Preliminary solubility assessment in solvents; conditions: RT
# Method: Amorphous (I) free acid (post washing, ca. 20 mg) was dissolved or suspended in a range of solvent systems (using 10 or 20 volumes) at RT. Solutions were placed in a fridge at 4° C. overnight. If no solid was obtained, the solution was then allowed to evaporate at RT. Suspensions were matured between RT-50° C. heat-cool cycles (8 h per cycle) for up to 7 days. Solids were analyzed by XRPD.
# [5] = Gravimetric vapour sorption (GVS); conditions: for Hygroscopicity: GVS, 0-90% RH
# Method: Sorption isotherms were obtained using a SMS DVS Intrinsic moisture sorption analyzer, controlled by DVS Intrinsic Control software. The sample temperature was maintained at 25° C. by instrument controls. The humidity was controlled by mixing streams of dry and wet nitrogen, with a total flow rate of 200 ml/min. The relative humidity was measured by a calibrated Rotronic probe (dynamic range of 1.0-100% RH), located near the sample. The weight change (mass relaxation) of the sample as a function of % RH was constantly monitored by the microbalance (accuracy ±0.005 mg). Typically 5-20 mg of sample was placed in a tared mesh stainless steel basket under ambient conditions. The sample was loaded and unloaded at 40% RH and 25° C. (typical room conditions). A moisture sorption isotherm was performed as outlined below (2 scans giving 1 complete cycle). The standard isotherm was performed at 25° C. at 10% RH intervals over a 0-90% RH range. Data analysis was carried out using Microsoft Excel. The sample was recovered after completion of the isotherm and re-analyzed by XRPD.
smiles,measurement,setting,value
"O=C(O)c1cccc(C#Cc2ccc(COC3CCOCC3)cc2)c1-c1ccc2cc[nH]c2c1 [Pattern 3, 2-(1H-Indol-6-yl)-3-[4-(tetrahydro-pyran-4-yloxymethyl)-phenylethynyl]-benzoic acid]",Storage at 40° C./75% RH for 3.5 days,"[1]; 40° C./75% RH, 3.5 days, XRPD and 1H NMR",Unchanged by
"O=C(O)c1cccc(C#Cc2ccc(COC3CCOCC3)cc2)c1-c1ccc2cc[nH]c2c1 [Pattern 1, 2-(1H-Indol-6-yl)-3-[4-(tetrahydro-pyran-4-yloxymethyl)-phenylethynyl]-benzoic acid]",XRPD after storage at 25° C./97% RH for 4 weeks,[2]; listed as Crystalline (I),remained unchanged by XRPD
same,XRPD after storage at 25° C./97% RH for 4 weeks,[2]; listed as crystalline batch,remained unchanged by XRPD
same,XRPD after storage at 40° C./75% RH for 4 weeks,[2]; listed as Crystalline (I),remained unchanged by XRPD
same,XRPD after storage at 40° C./75% RH for 4 weeks,[2]; listed as crystalline batch,remained unchanged by XRPD
same,XRPD after storage at 25° C./97% RH for 4 weeks,"[3]; 25° C./97% RH, 4 weeks",Unchanged by XRPD.
same,XRPD after storage at 40° C./75% RH for 4 weeks,"[3]; 40° C./75% RH, 4 weeks",Unchanged by XRPD.
"O=C(O)c1cccc(C#Cc2ccc(COC3CCOCC3)cc2)c1-c1ccc2cc[nH]c2c1 [Pattern 4, 2-(1H-Indol-6-yl)-3-[4-(tetrahydro-pyran-4-yloxymethyl)-phenylethynyl]-benzoic acid]",Storage at 40° C./75% RH for 7 days,"[3]; 40° C./75% RH, 7 days, solid form by XRPD",Unchanged
"O=C(O)c1cccc(C#Cc2ccc(COC3CCOCC3)cc2)c1-c1ccc2cc[nH]c2c1 [Pattern 2, 2-(1H-Indol-6-yl)-3-[4-(tetrahydro-pyran-4-yloxymethyl)-phenylethynyl]-benzoic acid]",Grinding and vacuum drying at 55° C.: solvent content,"[1]; 1H NMR, 0.5 eq. toluene as prepared",0.3 eq. toluene
same,Grinding and vacuum drying at 55° C.: crystallinity,[1]; XRPD,significant loss of crystallinity; also recorded: Lower crystallinity
same,Vacuum drying 40° C. or 55° C.,[1]; solid form and solvent content by XRPD or 1H NMR,Unchanged by XRPD
"O=C(O)c1cccc(C#Cc2ccc(COC3CCOCC3)cc2)c1-c1ccc2cc[nH]c2c1 [Amorphous (I) free acid, 2-(1H-Indol-6-yl)-3-[4-(tetrahydro-pyran-4-yloxymethyl)-phenylethynyl]-benzoic acid]",solubility,"[4]; 1,4-dioxane, organic solvent or mixture, thermodynamic from solid, 1,4-Dioxane, 10 vol, read-out: Solubility assessment 10 vol",> 100 mg/mL
same,solubility,"[4]; 2-propanol, organic solvent or mixture, thermodynamic from solid, 2-Propanol, 10 vol, read-out: Solubility assessment 10 vol",> 100 mg/mL
same,solubility,"[4]; acetone, organic solvent or mixture, thermodynamic from solid, Acetone, 10 vol, read-out: Solubility assessment 10 vol",> 100 mg/mL
same,solubility,"[4]; acetone/5% water, organic solvent or mixture, thermodynamic from solid, Acetone/5% water, 10 vol, read-out: Solubility assessment 10 vol",> 100 mg/mL
same,solubility,"[4]; acetonitrile, organic solvent or mixture, thermodynamic from solid, Acetonitrile, 10 vol, read-out: Solubility assessment 10 vol",> 100 mg/mL
same,solubility,"[4]; anisole, organic solvent or mixture, thermodynamic from solid, Anisole, 10 vol, read-out: Solubility assessment 10 vol",> 100 mg/mL
same,solubility,"[4]; dichloromethane, organic solvent or mixture, thermodynamic from solid, Dichloromethane, 10 vol, read-out: Solubility assessment 10 vol",> 100 mg/mL
same,solubility,"[4]; ethanol, organic solvent or mixture, thermodynamic from solid, Ethanol, 10 vol, read-out: Solubility assessment 10 vol",> 100 mg/mL
same,solubility,"[4]; ethanol/5% water, organic solvent or mixture, thermodynamic from solid, Ethanol/5% water, 10 vol, read-out: Solubility assessment 10 vol",> 100 mg/mL
same,solubility,"[4]; ethyl acetate, organic solvent or mixture, thermodynamic from solid, Ethyl Acetate, 10 vol, read-out: Solubility assessment 10 vol",> 100 mg/mL
same,solubility,"[4]; heptane, organic solvent or mixture, thermodynamic from solid, Heptane, 10 vol, read-out: Solubility assessment 10 vol",< 100 mg/mL
same,solubility,"[4]; heptane, organic solvent or mixture, thermodynamic from solid, Heptane, 20 vol, read-out: Solubility assessment 20 vol",< 50 mg/mL
same,solubility,"[4]; methanol, organic solvent or mixture, thermodynamic from solid, Methanol, 10 vol, read-out: Solubility assessment 10 vol",> 100 mg/mL
same,solubility,"[4]; methylethyl ketone, organic solvent or mixture, thermodynamic from solid, Methylethyl Ketone, 10 vol, read-out: Solubility assessment 10 vol",> 100 mg/mL
same,solubility,"[4]; methylisobutyl ketone (printed Methylisoburyl Ketone), organic solvent or mixture, thermodynamic from solid, Methylisoburyl Ketone, 10 vol, read-out: Solubility assessment 10 vol",> 100 mg/mL
same,solubility,"[4]; nitromethane, organic solvent or mixture, thermodynamic from solid, Nitromethane, 10 vol, read-out: Solubility assessment 10 vol",< 100 mg/mL
same,solubility,"[4]; nitromethane, organic solvent or mixture, thermodynamic from solid, Nitromethane, 20 vol, read-out: Solubility assessment 20 vol",< 50 mg/mL
same,solubility,"[4]; tetrahydrofuran, organic solvent or mixture, thermodynamic from solid, Tetrahydrofuran, 10 vol, read-out: Solubility assessment 10 vol",> 100 mg/mL
same,solubility,"[4]; toluene, organic solvent or mixture, thermodynamic from solid, Toluene, 10 vol, read-out: Solubility assessment 10 vol",< 100 mg/mL
same,solubility,"[4]; toluene, organic solvent or mixture, thermodynamic from solid, Toluene, 20 vol, read-out: Solubility assessment 20 vol",< 50 mg/mL
same,solubility,"[4]; water, thermodynamic from solid, Water, 10 vol, read-out: Solubility assessment 10 vol",< 100 mg/mL
same,solubility,"[4]; water, thermodynamic from solid, Water, 20 vol, read-out: Solubility assessment 20 vol",< 50 mg/mL
same,Hygroscopicity,[5],hygroscopic
same,Hygroscopicity,[5]; listed as main batch,hygroscopic
same,XRPD after GVS,"[5]; after 0-90% RH isotherm, listed as (I) free acid amorphous material",0-90% RH with hysteresis. Unchanged by XRPD.
same,GVS moisture uptake,"[5]; between 0-90% RH, 25° C.",ca. 5.50%
same,GVS reversible moisture uptake,"[5]; between 0-90% RH, 25° C.",5.5% w/w reversible moisture uptake between
same,Decrease in chemical purity after storage,"[3]; 25° C./97% RH, 8 weeks",4.0 % (AUC)
same,XRPD after storage at 25° C./97% RH for 8 weeks,"[3]; 25° C./97% RH, open vial, 8 weeks",completely amorphous trace by XRPD; also recorded: amorphous traces
same,Purity by HPLC after storage at 25° C./97% RH for 8 weeks,"[3]; 25° C./97% RH, open vial, 8 weeks, initial purity 95.5% (AUC)",91.5 % (AUC)
same,Purity by HPLC after storage at 25° C./97% RH for 8 weeks,"[3]; 25° C./97% RH, open vial, 8 weeks, initial purity 95.5% (AUC), listed as (I) free acid amorphous material",present. 91.5% (AUC) purity.
same,Decrease in chemical purity after storage,"[3]; 40° C./75% RH, 8 weeks",2.0 % (AUC)
same,XRPD after storage at 40° C./75% RH for 8 weeks,"[3]; 40° C./75% RH, open vial, 8 weeks",unchanged by XRPD; also recorded: amorphous traces
same,Purity by HPLC after storage at 40° C./75% RH for 8 weeks,"[3]; 40° C./75% RH, open vial, 8 weeks, initial purity 95.5% (AUC)",93.5 % (AUC)
same,XRPD after storage at 40° C./75% RH for 8 weeks,"[3]; 40° C./75% RH, open vial, 8 weeks, listed as (I) free acid amorphous material",Unchanged by XRPD
same,Decrease in chemical purity after storage,"[3]; 60° C., 8 weeks",1.1 % (AUC)
same,XRPD after storage at 60° C. for 8 weeks,"[3]; 60° C., closed vial, ambient humidity, 8 weeks",unchanged by XRPD; also recorded: amorphous traces
same,Purity by HPLC after storage at 60° C. for 8 weeks,"[3]; 60° C., closed vial, ambient humidity, 8 weeks, initial purity 95.5% (AUC)",94.4 % (AUC)
same,XRPD after storage at 60° C. for 8 weeks,"[3]; 60° C., closed vial, ambient humidity, 8 weeks, listed as (I) free acid amorphous material",Unchanged by XRPD
